# Measurements reported in US4889857A, “Quinolonecarboxylic acid compounds and pharmaceutical use thereof” (Yoshitomi Pharmaceutical Industries, Ltd., priority 1987, dated 1989).
# Legend:
# [1] = system: Escherichia coli NIHJ JC-2; experiment: Antibacterial activity in vitro (MIC); format: cell-based; conditions: NIHJJC2
# Procedure: (§1) The antibacterial activities in vitro (minimum inhibitory concentration, MIC, μg/ml) of the test compounds were measured according to the standard method of the Japanese Chemotherapy Society (Chemotherapy, Vol. 23, p.1126, 1974).
# (§2) (Inoculum size: 10^6 cells/ml, Organisms with asterisk (*) were
# (§3) cultivated in a 10% horse bloodadded medium.)
# [2] = system: Streptococcus viridans America; experiment: Antibacterial activity in vitro (MIC); format: cell-based
# Procedure: as §1, §2, §3
# [3] = system: Streptococcus sp. IFO 3535; experiment: Antibacterial activity in vitro (MIC); format: cell-based; conditions: IFO3535
# Procedure: as §1, §2, §3
# [4] = system: Staphylococcus aureus 1840; experiment: Antibacterial activity in vitro (MIC); format: cell-based
# Procedure: as §1, §2, §3
# [5] = system: Pseudomonas aeruginosa U-31; experiment: Antibacterial activity in vitro (MIC); format: cell-based; conditions: U31
# Procedure: as §1, §2, §3
# [6] = system: Bacillus subtilis PCT 219; experiment: Antibacterial activity in vitro (MIC); format: cell-based; conditions: PCT219
# Procedure: as §1, §2, §3
# [7] = system: Xanthomonas maltophilia IFO 12690; experiment: Antibacterial activity in vitro (MIC); format: cell-based; conditions: Stenotrophomonas maltophilia, IFO12690; inoculum 10^6 cells/ml
# Procedure: as §1, §2, §3
# Klebsiella pneumoniae DT = experiment: Antibacterial activity in vitro (MIC); format: cell-based
# Procedure: as §1, §2, §3
# [8] = system: Staphylococcus epidermidis ATCC 12228; experiment: Antibacterial activity in vitro (MIC); format: cell-based; conditions: ATCC12228
# Procedure: as §1, §2, §3
# [9] = system: Pediococcus damnosus IFO 3895; experiment: Antibacterial activity in vitro (MIC); format: cell-based; conditions: IFO3895
# Procedure: as §1, §2, §3
# [10] = system: Pseudomonas aeruginosa IFO 12582; experiment: Antibacterial activity in vitro (MIC); format: cell-based; conditions: IFO12582
# Procedure: as §1, §2, §3
# [11] = system: Acinetobacter calcoaceticus ATCC 13006; experiment: Antibacterial activity in vitro (MIC); format: cell-based; conditions: ATCC13006
# Procedure: as §1, §2, §3
# [12] = system: Corynebacterium diphtheriae Tronto; experiment: Antibacterial activity in vitro (MIC); format: cell-based
# Procedure: as §1, §2, §3
# [13] = system: Pseudomonas putida IFO 12996; experiment: Antibacterial activity in vitro (MIC); format: cell-based; conditions: IFO12996
# Procedure: as §1, §2, §3
# [14] = system: Citrobacter freundii IFO 12681; experiment: Antibacterial activity in vitro (MIC); format: cell-based; conditions: IFO12681, inoculum 10^6 cells/ml
# Procedure: as §1, §2, §3
# Escherichia coli T-7 = experiment: Antibacterial activity in vitro (MIC); format: cell-based; conditions: T7, inoculum 10^6 cells/ml
# Procedure: as §1, §2, §3
# [15] = system: Shigella typhosa Boxhill-58; experiment: Antibacterial activity in vitro (MIC); format: cell-based
# Procedure: as §1, §2, §3
# [16] = system: Streptococcus lactis IFO 12546; experiment: Antibacterial activity in vitro (MIC); format: cell-based; conditions: Lactococcus lactis, IFO12546
# Procedure: as §1, §2, §3
# [17] = system: Staphylococcus aureus FDA 209P; experiment: Antibacterial activity in vitro (MIC); format: cell-based; conditions: FDA209P
# Procedure: as §1, §2, §3
# Escherichia coli O-111 = experiment: Antibacterial activity in vitro (MIC); format: cell-based; conditions: O111, inoculum 10^6 cells/ml
# Procedure: as §1, §2, §3
# [18] = system: Proteus vulgaris IFO 3988; experiment: Antibacterial activity in vitro (MIC); format: cell-based; conditions: IFO3988
# Procedure: as §1, §2, §3
# [19] = system: Serratia marcescens IFO 12648; experiment: Antibacterial activity in vitro (MIC); format: cell-based; conditions: IFO12648
# Procedure: as §1, §2, §3
# Shigella flexneri EW-10 = experiment: Antibacterial activity in vitro (MIC); format: cell-based; conditions: EW10, inoculum 10^6 cells/ml
# Procedure: as §1, §2, §3
# Shigella sonnei EW-33 = experiment: Antibacterial activity in vitro (MIC); format: cell-based; conditions: EW33, inoculum 10^6 cells/ml
# Procedure: as §1, §2, §3
# [20] = system: Proteus mirabilis IFO 3849; experiment: Antibacterial activity in vitro (MIC); format: cell-based; conditions: IFO3849
# Procedure: as §1, §2, §3
# [21] = system: Morganella morganii IFO 3168; experiment: Antibacterial activity in vitro (MIC); format: cell-based; conditions: IFO3168
# Procedure: as §1, §2, §3
# S. aureus Smith [22] = experiment: MIC of the infecting organism (Experiment 2); format: cell-based; conditions: Staphylococcus aureus
# Procedure: (§4) Experimental infection was caused by inoculating male mice intraperitoneally with each organism. Each of the test compounds was administered orally to the mice, one hour after the inoculation. The therapeutic effect of each compounds was judged by using a 50% effective dose (ED50) from the survival rate on day 7 after injection by the Probit method as described in Proc. Soc. Exp. Biol. Med., Vol. 57, p.261-264, 1944. The Minimum inhibitory concentrations (MIC) were also measured.
# E. coli KC-14 [23] = experiment: MIC of the infecting organism (Experiment 2); format: cell-based; conditions: Escherichia coli, KC14
# Procedure: as §4
# [24] = system: Staphylococcus aureus FDA 209P*; experiment: Antibacterial activity in vitro (MIC), horse blood medium; format: cell-based; conditions: FDA209P
# Procedure: as §1, §2, §3
# S. aureus Smith [25] = experiment: Protective effect against experimental infection in mice; format: in vivo; conditions: oral, 1 h after i.p. inoculation of 2.13 × 10^6 cells/mouse [792 LD50] with mucin; survival day 7; 95% confidence limit
# Procedure: as §4
# (§5) (The overnight cultures of test organisms with an asterisk (*) were
# (§6) diluted with 50% mucin and 0.5 ml of each was injected intraperitoneally
# (§7) into mice. A double asterisk (**) means a 95% confidence limit. MRSA mean
# (§8) methycillinresistant Staphylococcus aureus.)
# S. pyogenes C-203 = experiment: as above; format: in vivo; conditions: oral, 1 h after i.p. inoculation of 4.42 × 10^4 cells/mouse [680 LD50]; survival day 7; 95% confidence limit
# Procedure: as §4, §5, §6, §7, §8
# E. coli KC-14 [26] = experiment: as above; format: in vivo; conditions: oral, 1 h after i.p. inoculation of 5.75 × 10^4 cells/mouse [488 LD50] with mucin; survival day 7; 95% confidence limit
# Procedure: as §4, §5, §6, §7, §8
# S. aureus 109(MRSA) = experiment: as above; format: in vivo; conditions: oral, 1 h after i.p. inoculation of 4.93 × 10^8 cells/mouse [5.7 LD50] with mucin; survival day 7; 95% confidence limit
# Procedure: as §4, §5, §6, §7, §8
# S. pneumoniae Type III = experiment: as above; format: in vivo; conditions: oral, 1 h after i.p. inoculation of 6.0 × 10^2 cells/mouse [12 LD50]; survival day 7; 95% confidence limit
# Procedure: as §4, §5, §6, §7, §8
smiles,measurement,setting,value
"O=C(O)c1cn(C2CC2)c2cc(N3CCNCC3)c(F)cc2c1=O [CPFX, 1-cyclopropyl-6-fluoro-1,4-dihydro-7-(1-piperazinyl)-4-oxoquinoline-3-carboxylic acid]",MIC,[1],0.025 µg/mL
same,MIC,[2],3.13 µg/mL
same,MIC,[3],3.13 µg/mL
same,MIC,[4],3.13 µg/mL
same,MIC,[5],0.2 µg/mL
same,MIC,[6],0.025 µg/mL
same,MIC,[7],0.05 µg/mL
same,MIC,Klebsiella pneumoniae DT,0.025 µg/mL
same,MIC,[8],0.2 µg/mL
same,MIC,[9],0.1 µg/mL
same,MIC,[10],0.2 µg/mL
same,MIC,[11],0.1 µg/mL
same,MIC,[12],0.1 µg/mL
same,MIC,[13],0.1 µg/mL
same,MIC,[14],0.012 µg/mL
same,MIC,Escherichia coli T-7,0.012 µg/mL
same,MIC,[15],≤ 0.006 µg/mL
same,MIC,[16],3.13 µg/mL
same,MIC,[17],0.2 µg/mL
same,MIC,Escherichia coli O-111,0.012 µg/mL
same,MIC,[18],0.05 µg/mL
same,MIC,[19],0.1 µg/mL
same,MIC,Shigella flexneri EW-10,0.012 µg/mL
same,MIC,Shigella sonnei EW-33,≤ 0.006 µg/mL
same,MIC,[20],0.1 µg/mL
same,MIC,[21],0.025 µg/mL
same,MIC,S. aureus Smith [22],0.1 µg/mL
same,MIC,E. coli KC-14 [23],≤ 0.006 µg/mL
same,MIC,[24],0.2 µg/mL
same,ED50,S. aureus Smith [25],0.325(0.232-0.453) mg/mouse
same,ED50,S. pyogenes C-203,> 2 mg/mouse
same,ED50,E. coli KC-14 [26],0.011(0.008-0.015) mg/mouse
same,ED50,S. aureus 109(MRSA),1.163(0.460-1.660) mg/mouse
same,ED50,S. pneumoniae Type III,> 2 mg/mouse
